{"source": "patent US20250114344A1", "about": "“COMBINATORIAL PHARMACOTHERAPY FOR THE RESTORATION OF NEURO-FUNCTION AND COMBINATORIAL PHARMACOLOGICAL COMPOSITION THEREFORE” (Neuro-Innovators, LLC., priority 2022, published 2025)", "origin": "cited, not measured here", "key": {"CYP3A4": {"target": "CYP3A4 (Homo sapiens, UniProt P08684)", "sequence (P08684 whole entry, species assumed)": "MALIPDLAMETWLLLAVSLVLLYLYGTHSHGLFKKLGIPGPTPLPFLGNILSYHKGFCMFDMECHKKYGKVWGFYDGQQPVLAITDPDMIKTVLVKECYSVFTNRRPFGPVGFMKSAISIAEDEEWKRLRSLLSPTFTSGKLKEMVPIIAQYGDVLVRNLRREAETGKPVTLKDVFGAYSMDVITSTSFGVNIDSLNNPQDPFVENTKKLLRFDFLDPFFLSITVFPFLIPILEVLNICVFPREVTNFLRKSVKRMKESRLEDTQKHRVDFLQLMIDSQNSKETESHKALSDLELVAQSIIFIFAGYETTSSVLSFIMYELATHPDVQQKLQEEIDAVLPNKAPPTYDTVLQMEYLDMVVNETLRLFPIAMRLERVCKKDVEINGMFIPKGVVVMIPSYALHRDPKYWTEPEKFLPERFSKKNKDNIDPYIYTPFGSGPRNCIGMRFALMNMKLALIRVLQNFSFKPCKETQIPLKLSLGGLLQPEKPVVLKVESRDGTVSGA"}, "[1]": {"settings": "compared with aspirin; fewer hemorrhagic events"}, "MANF (a form of BDNF)": {"system": "MANF (a form of BDNF)", "settings": "Prefrontal Cortex and Striatum, compared to controls"}}}
{"smiles": "O=C1CCc2cc(OCCCCc3nnnn3C3CCCCC3)ccc2N1", "note": "[Cilostazol]", "values": [{"measurement": "interaction with CYP3A4", "setting": "CYP3A4", "result": "substrate for CYP3A4"}, {"measurement": "incidence of recurrent stroke", "setting": "[1]", "result": "significantly reduce the incidence of recurrent stroke"}]}
{"smiles": "O=C([O-])[O-].[Li+].[Li+]", "note": "[lithium, Lithium Carbonate]", "values": [{"measurement": "MANF expression", "setting": "MANF (a form of BDNF)", "result": "significant increase"}]}
